Measured values taken from PMC11066876, “Late-Stage Saturation of Drug Molecules” (Journal of the American Chemical Society, 2024).
≈ marks a conversion by molar mass, not a printed value.

Tests used:
[1] = High-throughput (direct-to-biology) human liver microsomal stability assay; settings: for %Change After 60 min: %remaining after LSS minus before LSS at 60 min; for remaining at 0 h, 105 µM / remaining at 0.25 h, 105 µM / remaining at 0.5 h, 105 µM / remaining at 1 h, 105 µM / half-life at 105 µM: both, human, microsomes, pH 7.4
[2] = test system: SARS-CoV M^pro; settings: Figure 1B; cited from earlier work
[3] = Measurement of LogPo/w (n-octanol/water, RP-HPLC); assay type: physicochemical; settings: n = 3; for logP at 24 h: measured n-octanol-water partition coefficient, 30 °C; for C(oil): n-octanol phase; for C(oil) / C(aqueous): n-octanol/water 1:1, 30 °C, 24 h; for C(aqueous): water phase
[4] = Metabolic stability in human liver microsomes (Pharmaron); settings: for CLint scaled at 1 µM / microsomal CLint at 1 µM / half-life at 1 µM: both, microsomes; for CLint scaled at 1 µM / microsomal CLint at 1 µM / half-life at 1 µM / Hepatic Extraction Ratio (ER) / Predicted Hepatic CLH: human; for Remaining Percentage 0.5 min / Remaining Percentage 5 min / Remaining Percentage 15 min / Remaining Percentage 30 min: human liver microsomes 0.5 mg/mL, +Cofactors (NADPH), 1 μM; for Predicted Hepatic CLH: QH 21 mL/min/kg, fub assumed 1
[5] = parameters: method as in PMID 23701517; settings: aqueous solubility, Figure 1B; cited from earlier work
[6] = parameters: method as in PMID 23701517; settings: Figure 1B; cited from earlier work
[7] = Traditional t1/2, human liver microsomes, Figure 6B
[8] = in vitro t1/2, human liver microsomes, Table S21

Row | SMILES | %Change After 60 min ([1]; human liver microsomes) | remaining at 0 h, 105 µM [1] | remaining at 0.25 h, 105 µM [1] | remaining at 0.5 h, 105 µM [1] | remaining at 1 h, 105 µM [1] | logP at 24 h [3] | C(oil) [3] | C(aqueous) [3] | further results
1 | CN(Cc1ccc(C(C)(C)C)cc1)Cc1cccc2ccccc12 [Butenafine] | -2.69% | 100% | 97.8% | 95.6% | 94.9% | – | – | – | –
2 | Nc1c2ccccc2nc2ccccc12 [Aminacrine] | -12.39% | 100% | 83.7% | 75.1% | 66.2% | – | – | – | –
3 | CCN(CC)C(=O)c1cccc(C)c1 [Diethyltoluamide] | 0.82% | 100% | 89% | 81.7% | 75.5% | – | – | – | –
4 | O=C(C1CCCCC1)N1CC(=O)N2CCc3ccccc3C2C1 (stereo not drawn) [Praziquantel, praziquantel] | -15.26% | – | – | 31.8% | 15.3% | – | – | – | –
5 | O=C(/C=C/c1ccccc1)N[C@@H](CC1CCCCC1)C(=O)N[C@@H](C[C@@H]1CCNC1=O)C(=O)C(=O)NCc1ccccc1 [compound 2] | – | – | – | – | – | – | – | – | IC50 [2]: 0.71 µM
6 | CCCNC(C)C(=O)Nc1ccccc1C (stereo not drawn) [Prilocaine] | -13.77% | 100% | 86% | 75% | 67.4% | 1.02 | 1.306 mg/mL | 0.124 mg/mL | –
7 | CCCNC(C)C(=O)NC1CCCCC1C (stereo not drawn) [compound 15] | – | – | – | – | – | 1.39 | 1.569 mg/mL | 0.064 mg/mL | –
8 | C[C@@H](NCCCc1cccc(C(F)(F)F)c1)c1cccc2c1CCCC2 [compound 39] | – | – | – | – | – | 4.79 | 9.541 mg/mL | 0.0001 mg/mL | CLint scaled at 1 µM [4]: 68 mL/min/kg; microsomal CLint at 1 µM [4]: 66.2 µL/min/mg; half-life at 1 µM [4, 7]: 21 min; half-life at 1 µM [4, 8]: 21 min; Hepatic Extraction Ratio (ER) [4]: 0.76; Remaining Percentage 0.5 min [4]: 100.00%; Remaining Percentage 5 min [4]: 85.98%; Remaining Percentage 15 min [4]: 57.81%; Remaining Percentage 30 min [4]: 38.01%; Predicted Hepatic CLH [4]: 16.05 mL/min/kg; half-life at 105 µM [1]: 33.7 min
9 | CCOC(=O)[C@H](C)C[C@@H](Cc1ccc(C2CCCCC2)cc1)NC(=O)CCC(=O)O [compound 70] | – | – | – | – | – | 1.39 | 0.737 mg/mL | 0.030 mg/mL | –
10 | CC(C)NCC(O)COC1CCCC2CCCCC21 (stereo not drawn) [compound 23] | – | – | – | – | – | 2.62 | 2.697 mg/mL | 0.007 mg/mL | –
11 | CCN(Cc1ccncc1)C(=O)C(CO)c1ccccc1 (stereo not drawn) [Tropicamide] | -2.61% | 100% | 95.2% | 91.9% | 88.1% | – | – | – | –
12 | O=C(/C=C/c1ccccc1)N[C@@H](Cc1ccccc1)C(=O)N[C@@H](C[C@@H]1CCNC1=O)C(=O)C(=O)NCc1ccccc1 [compound 1] | – | – | – | – | – | – | – | – | IC50 [2]: 1.95 µM
13 | CC(C(=O)O)c1ccc(-c2ccccc2)c(F)c1 (stereo not drawn) [Flurbiprofen] | 7.13% | 100% | 50.1% | 25.1% | 9.28% | 1.14 | 1.858 mg/mL | 0.135 mg/mL | –
14 | COC(=O)N[C@H](C(=O)N[C@@H](Cc1ccccc1)[C@@H](O)CN(Cc1ccc(-c2ccccn2)cc1)NC(=O)[C@@H](NC(=O)OC)C(C)(C)C)C(C)(C)C [Atazanavir] | -5.37% | 100% | 84.7% | 72.9% | 65.3% | – | – | – | –
15 | CC(Cc1cccc(C(F)(F)F)c1)NCCOC(=O)c1ccccc1 (stereo not drawn) [Benfluorex] | – | 100% | – | – | – | – | – | – | –
16 | CC1(C)OC(=O)N(c2ccc(C(=O)Nc3cccc4cccnc34)cc2)[C@H]1c1ccccc1 [compound 3] | – | – | – | – | – | – | – | – | Solubility [5]: 5 µg/mL (≈ 11.4 µM); Plasma stability (t1/2) [6]: 312 min
17 | CC(C)NCC(O)COc1cccc2ccccc12 (stereo not drawn) [Propranolol] | – | – | – | – | – | – | 2.871 mg/mL | 0.015 mg/mL | –
18 | C[C@@H](NCCCc1cccc(C(F)(F)F)c1)c1cccc2ccccc12 [Cinacalcet] | -1.7% | 100% | 67.4% | 49% | 35.4% | 4.61 | 8.962 mg/mL | 0.0002 mg/mL | CLint scaled at 1 µM [4]: 67.4 mL/min/kg; microsomal CLint at 1 µM [4]: 65.6 µL/min/mg; half-life at 1 µM [4, 7]: 21.1 min; half-life at 1 µM [4, 8]: 21.1 min; Hepatic Extraction Ratio (ER) [4]: 0.76; Remaining Percentage 0.5 min [4]: 100.00%; Remaining Percentage 5 min [4]: 80.88%; Remaining Percentage 15 min [4]: 55.07%; Remaining Percentage 30 min [4]: 37.55%; Predicted Hepatic CLH [4]: 16.01 mL/min/kg; half-life at 105 µM [1]: 35.4 min
19 | CCOC(=O)[C@H](C)C[C@@H](Cc1ccc(-c2ccccc2)cc1)NC(=O)CCC(=O)O [Sacubitril] | -1.91% | 100% | 60.2% | 34% | 22.6% | 1.47 | 1.368 mg/mL | 0.047 mg/mL | –
20 | COc1ccccc1N1CCN(CC(O)COc2cccc3c2CCCC3)CC1 (stereo not drawn) [compound 28] | – | – | – | – | – | 2.1 | 1.761 mg/mL | 0.014 mg/mL | –
21 | COc1ccc2cc(CCC(C)=O)ccc2c1 [Nabumetone, nabumetone] | 5.23% | 100% | 58% | 40.7% | 21.7% | – | – | – | –
22 | CC(C(=O)O)c1ccc(N2C[C@H]3CCCC[C@H]3C2=O)cc1 (stereo partly drawn) [compound 37] | – | – | – | – | – | 0.813 | 0.897 mg/mL | 0.138 mg/mL | –
23 | CC(C(=O)O)c1ccc(C2CCCCC2)c(F)c1 (stereo not drawn) [compound 27] | – | – | – | – | – | 1.54 | 2.453 mg/mL | 0.071 mg/mL | microsomal stability upon saturation ([1]; human liver microsomes, saturated congener versus parent drug, in words): increase in stability
24 | CCC1(c2ccccc2)C(=O)NCNC1=O [Primidone] | 2.16% | 100% | 71% | 43.6% | 27.8% | – | – | – | –
25 | CC(C(=O)O)c1ccc(N2Cc3ccccc3C2=O)cc1 (stereo not drawn) [Indoprofen] | -14.04% | 100% | 97.6% | 99% | 102% | 1.02 | 0.943 mg/mL | 0.091 mg/mL | –
26 | CC1(C)OC(=O)N([C@H]2CC[C@H](C(=O)Nc3cccc4cccnc34)CC2)[C@H]1c1ccccc1 [compound 4] | – | – | – | – | – | – | – | – | Plasma stability (t1/2) [6]: > 500 min
27 | COc1ccccc1N1CCN(CC(O)COc2cccc3ccccc23)CC1 (stereo not drawn) [Naftopidil] | -25.63% | 100% | 72.2% | 58.9% | 47% | 2.04 | 1.697 mg/mL | 0.016 mg/mL | –
